From patent US12551573B2, “Compositions and methods for the targeting of PCSK9” (Scribe Therapeutics Inc., priority 2022, dated 2026)

System: human PCSK9 locus
Experiment: Secreted PCSK9 by ELISA (normalized to total cell count) in Huh7 cells transfected with mRNA and gRNA
Assay type: cell-based
Details: paired with LTRP5-ADD-ZIM3 mRNA; for Secreted PCSK9 / Percent reduction in PCSK9 secretion / Average percent reduction in PCSK9 secretion: Huh7 cells, 6 days post-transfection; for Secreted PCSK9: normalized to total cell count; for Percent reduction in PCSK9 secretion: relative to non-targeting gRNA control; for Average percent reduction in PCSK9 secretion: averaged from the two doses
Protocol: To assess PCSK9 secretion, seeded Huh7 cells were transfected with mRNA encoding a catalytically-active CasX 676, dXR1, or LTRP5-ADD-ZIM3 and a gRNA with scaffold 316 and spacer targeting either the B2M or PCSK9 locus. Media supernatant was harvested at 6, 18, 36, and 87 days post-transfection to assess level of PCSK9 secretion by ELISA. Levels of PCSK9 secretion were normalized to total cell count. As an additional control, PCSK9 secretion was also measured in the media supernatant harvested from wells containing untreated, naïve cells.
The following three human hepatocyte cancer cell lines were used in this experiment: HepG2 cells, Hep3B cells, and Huh7 cells. ˜15,000 cells of each cell line were seeded per well; the next day, seeded cells were transfected with mRNA encoding a catalytically-active CasX 676, dXR1, or LTRP5-ADD-ZIM3 and a gRNA with scaffold 316 and spacer targeting either the B2M or PCSK9 locus (see Table 23 for specific spacers and sequences). Media supernatant was harvested at 4 days post-transfection to assess level of PCSK9 secretion by ELISA, and levels of PCSK9 secretion were normalized to total cell count and illustrated in FIGS. 11A-11C. Culturing of treated Huh7 cells continued, and media supernatant was harvested at 14 and 27 days post-transfection for measuring PCSK9 secretion by ELISA. As an additional experimental control, PCSK9 secretion was also measured in the media supernatant harvested from wells containing untreated, naïve cells.
To assess PCSK9 secretion, seeded Huh7 cells were co-transfected with mRNA encoding for LTRP5-ADD-ZIM3 and a gRNA with scaffold 316 and spacer targeting the PCSK9 locus using Lipofectamine™ 3000. Two doses of total RNA input at a 2:1 mass ratio of mRNA to gRNA were used for screening: 50 ng mRNA: 25 ng gRNA and 25 ng mRNA: 12.5 ng gRNA. Media supernatant was harvested at 6 days post-transfection to assess level of PCSK9 secretion by ELISA (Table 74). Levels of PCSK9 secretion were normalized to total cell count. As an additional control, PCSK9 secretion was also measured in the media supernatant harvested from cells transfected with mRNA encoding for mScarlet.

Sequence: GCCAGGCCGUCCUCCUCGGA (listed as RNA, chemistry not given here) [spacer 6.4, Exon 1]
- Secreted PCSK9 (25 ng mRNA:12.5 ng gRNA): 73.05 ng/mL
- Percent reduction in PCSK9 secretion (25 ng mRNA:12.5 ng gRNA): 2.54%
- Secreted PCSK9 (50 ng mRNA:25 ng gRNA): 54.83 ng/mL
- Percent reduction in PCSK9 secretion (50 ng mRNA:25 ng gRNA): 33.35%
- Average percent reduction in PCSK9 secretion: 15.41%

Sequence: GCCGGGCCCACCUUUUCAGU (listed as RNA, chemistry not given here) [spacer 6.148, Promoter]
- Secreted PCSK9 (25 ng mRNA:12.5 ng gRNA): 44.77 ng/mL
- Percent reduction in PCSK9 secretion (25 ng mRNA:12.5 ng gRNA): 37.16%
- Secreted PCSK9 (50 ng mRNA:25 ng gRNA): 71.46 ng/mL
- Percent reduction in PCSK9 secretion (50 ng mRNA:25 ng gRNA): 13.15%
- Average percent reduction in PCSK9 secretion: 25.15%

Sequence: GCCUCGCCCUCCCCAAACAG (listed as RNA, chemistry not given here) [spacer 6.152, Promoter]
- Secreted PCSK9 (25 ng mRNA:12.5 ng gRNA): 57.43 ng/mL
- Percent reduction in PCSK9 secretion (25 ng mRNA:12.5 ng gRNA): 19.39%
- Secreted PCSK9 (50 ng mRNA:25 ng gRNA): 36.95 ng/mL
- Percent reduction in PCSK9 secretion (50 ng mRNA:25 ng gRNA): 55.09%
- Average percent reduction in PCSK9 secretion: 37.24%

Sequence: GCGCGCCCCUUCACGCGCCC (listed as RNA, chemistry not given here) [spacer 6.159, Exon 1]
- Secreted PCSK9 (25 ng mRNA:12.5 ng gRNA): 80.84 ng/mL
- Percent reduction in PCSK9 secretion (25 ng mRNA:12.5 ng gRNA): 13.47%
- Secreted PCSK9 (50 ng mRNA:25 ng gRNA): 53.15 ng/mL
- Percent reduction in PCSK9 secretion (50 ng mRNA:25 ng gRNA): 35.4%
- Average percent reduction in PCSK9 secretion: 10.97%

Sequence: GCUCCUGCACAGUCCUCCCC (listed as RNA, chemistry not given here) [spacer 6.161, Exon 1]
- Secreted PCSK9 (25 ng mRNA:12.5 ng gRNA): 53.16 ng/mL
- Percent reduction in PCSK9 secretion (25 ng mRNA:12.5 ng gRNA): 25.38%
- Secreted PCSK9 (50 ng mRNA:25 ng gRNA): 29.55 ng/mL
- Percent reduction in PCSK9 secretion (50 ng mRNA:25 ng gRNA): 64.08%
- Average percent reduction in PCSK9 secretion: 44.73%

Sequence: GCUGAAACAGAUGGAAUACU (listed as RNA, chemistry not given here) [spacer 6.172, Intron 1]
- Secreted PCSK9 (25 ng mRNA:12.5 ng gRNA): 59.31 ng/mL
- Percent reduction in PCSK9 secretion (25 ng mRNA:12.5 ng gRNA): 16.75%
- Secreted PCSK9 (50 ng mRNA:25 ng gRNA): 44.44 ng/mL
- Percent reduction in PCSK9 secretion (50 ng mRNA:25 ng gRNA): 45.99%
- Average percent reduction in PCSK9 secretion: 31.37%

Sequence: GGAAAGCUGAGCUUGUGCCU (listed as RNA, chemistry not given here) [spacer 6.135, Promoter]
- Secreted PCSK9 (25 ng mRNA:12.5 ng gRNA): 44.59 ng/mL
- Percent reduction in PCSK9 secretion (25 ng mRNA:12.5 ng gRNA): 37.42%
- Secreted PCSK9 (50 ng mRNA:25 ng gRNA): 25.66 ng/mL
- Percent reduction in PCSK9 secretion (50 ng mRNA:25 ng gRNA): 68.82%
- Average percent reduction in PCSK9 secretion: 53.12%

Sequence: GGAAGGGCUGUCGAUACUGG (listed as RNA, chemistry not given here) [spacer 6.121, Promoter]
- Secreted PCSK9 (25 ng mRNA:12.5 ng gRNA): 37.13 ng/mL
- Percent reduction in PCSK9 secretion (25 ng mRNA:12.5 ng gRNA): 47.89%
- Secreted PCSK9 (50 ng mRNA:25 ng gRNA): 28.33 ng/mL
- Percent reduction in PCSK9 secretion (50 ng mRNA:25 ng gRNA): 65.57%
- Average percent reduction in PCSK9 secretion: 56.73%

Sequence: GGAGCAGGGCGCGUGAAGGG (listed as RNA, chemistry not given here) [spacer 6.158, Exon 1]
- Secreted PCSK9 (25 ng mRNA:12.5 ng gRNA): 31.72 ng/mL
- Percent reduction in PCSK9 secretion (25 ng mRNA:12.5 ng gRNA): 55.48%
- Secreted PCSK9 (50 ng mRNA:25 ng gRNA): 9.39 ng/mL
- Percent reduction in PCSK9 secretion (50 ng mRNA:25 ng gRNA): 88.59%
- Average percent reduction in PCSK9 secretion: 72.03%

Sequence: GGGUCUGAGCCUGGAGGAGU (listed as RNA, chemistry not given here) [spacer 6.157, Exon 1]
- Secreted PCSK9 (25 ng mRNA:12.5 ng gRNA): 32.4 ng/mL
- Percent reduction in PCSK9 secretion (25 ng mRNA:12.5 ng gRNA): 54.53%
- Secreted PCSK9 (50 ng mRNA:25 ng gRNA): 12.32 ng/mL
- Percent reduction in PCSK9 secretion (50 ng mRNA:25 ng gRNA): 85.03%
- repression of PCSK9 secretion by spacer (Huh7, scaffold 316, days 4, 14, 27): most effective repression of PCSK9 secretion
- Average percent reduction in PCSK9 secretion: 69.78%

Sequence: GUGCUCGGGUGCUUCGGCCA (listed as RNA, chemistry not given here) [spacer 6.5, Exon 1]
- Secreted PCSK9 (25 ng mRNA:12.5 ng gRNA): 76.37 ng/mL
- Percent reduction in PCSK9 secretion (25 ng mRNA:12.5 ng gRNA): 7.19%
- Secreted PCSK9 (50 ng mRNA:25 ng gRNA): 67.08 ng/mL
- Percent reduction in PCSK9 secretion (50 ng mRNA:25 ng gRNA): 18.47%
- Average percent reduction in PCSK9 secretion: 5.64%

Sequence: GUGGGAAGGUUCGCGGGGUU (listed as RNA, chemistry not given here) [spacer 6.168, Intron 1]
- Secreted PCSK9 (25 ng mRNA:12.5 ng gRNA): 50.96 ng/mL
- Percent reduction in PCSK9 secretion (25 ng mRNA:12.5 ng gRNA): 28.47%
- Secreted PCSK9 (50 ng mRNA:25 ng gRNA): 19.1 ng/mL
- Percent reduction in PCSK9 secretion (50 ng mRNA:25 ng gRNA): 76.78%
- Average percent reduction in PCSK9 secretion: 52.62%
